Measurements taken from patent publication EP4428121A1, “MODULATORS OF SORTILIN ACTIVITY” (Vesper Bio Aps, priority 2023, dated 2024).

Target: T1, Human (6-His)Sortilin (Homo sapiens, UniProt Q99523)
T1 construct: purchased RnD Systems
T1 sequence (Q99523 78-755 limits assumed): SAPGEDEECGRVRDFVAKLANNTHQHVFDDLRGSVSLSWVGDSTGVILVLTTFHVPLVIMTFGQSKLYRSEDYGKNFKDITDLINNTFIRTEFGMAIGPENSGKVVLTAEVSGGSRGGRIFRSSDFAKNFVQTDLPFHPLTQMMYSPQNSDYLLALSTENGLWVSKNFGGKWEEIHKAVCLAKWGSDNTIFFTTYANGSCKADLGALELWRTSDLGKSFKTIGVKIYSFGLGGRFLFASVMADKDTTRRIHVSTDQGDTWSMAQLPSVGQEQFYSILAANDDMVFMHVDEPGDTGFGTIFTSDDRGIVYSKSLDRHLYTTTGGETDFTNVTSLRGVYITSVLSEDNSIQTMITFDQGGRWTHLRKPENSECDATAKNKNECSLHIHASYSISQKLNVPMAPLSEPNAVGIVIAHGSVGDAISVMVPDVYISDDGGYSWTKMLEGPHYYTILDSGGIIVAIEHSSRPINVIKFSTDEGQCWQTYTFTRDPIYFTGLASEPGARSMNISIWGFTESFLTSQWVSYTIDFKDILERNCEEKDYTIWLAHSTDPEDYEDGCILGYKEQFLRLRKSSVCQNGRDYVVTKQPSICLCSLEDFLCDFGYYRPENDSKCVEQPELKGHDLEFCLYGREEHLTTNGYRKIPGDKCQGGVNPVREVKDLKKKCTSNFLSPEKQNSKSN
Test: Human Sortilin GCI (Grating-Coupled Interferometry) binding assay
Conditions: Creoptix WAVE-RAPID, single concentration (usually 1 µM, 10 µM or 100 µM), immobilised Human (6-His)Sortilin, 1:1 kinetic binding model

Compound	Kd [µM]
CC(C)CCC(Nc1cccc2ccccc12)c1nn[nH]n1 (racemic) [Example 38, [4-methyl-1-(2H-tetraazol-5-yl)pentyl]-1-naphthylamine]	8.75
CC(C)CC(Nc1ccc2ccccc2n1)c1nn[nH]n1 (racemic) [Example 40, [3-methyl-1-(2H-tetraazol-5-yl)butyl]-2-quinolylamine]	22
CC(C)(C)CC[C@@H](Nc1ccc2ccccc2n1)c1nn[nH]n1 (single isomer, unassigned) [Example 95]	6.07
CC(C)(C)CC(Nc1cc2ccccc2cn1)c1nn[nH]n1 (racemic) [Example 60, [3,3-dimethyl-1-(2H-tetraazol-5-yl)butyl]-3-isoquinolylamine]	5.9
CC(C)(C)CC(Nc1cncnc1)c1nn[nH]n1 (racemic) [Example 50, N-5-pyrimidinyl[3,3-dimethyl-1-(2H-tetraazol-5-yl)butyl]amine]	28
CC(C)(C)CCC(Nc1ncccn1)c1nn[nH]n1 (racemic) [Example 47, N-2-pyrimidinyl[4,4-dimethyl-1-(2H-tetraazol-5-yl)pentyl]amine]	7.82
CC(C)CC(Nc1cc2ccccc2cn1)c1nn[nH]n1 (racemic) [Example 42, [3-methyl-1-(2H-tetraazol-5-yl)butyl]-3-isoquinolylamine]	3.17
CC(C)(C)CC[C@H](Nc1cncc2ccccc12)C(=O)O [Example 29, (S)-2-(isoquinolin-4-ylamino)-5,5-dimethylhexanoic acid]	0.0578
CC(C)CCC(Nc1cnc2ccccc2c1)c1nn[nH]n1 (racemic) [Example 55, [4-methyl-1-(2H-tetraazol-5-yl)pentyl]-3-quinolylamine]	10.5
COc1ccc2ncnc(NC(CCC(C)C)c3nn[nH]n3)c2c1 (racemic) [Example 79, [4-methyl-1-(2H-tetraazol-5-yl)pentyl](6-methoxy-4-quinazolinyl)amine]	19.5
CC(C)(C)CC[C@@H](Nc1cccnc1)c1nn[nH]n1 (single isomer, unassigned) [Example 100]	6.22
CC(C)CC(Nc1ccncc1)c1nnn[nH]1 (racemic) [Example 104, N-(3-methyl-1-(1H-tetrazol-5-yl)butyl)pyridin-4-amine]	74.2
CC(C)CC(Nc1cnc2ccccc2c1)c1nn[nH]n1 (racemic) [Example 56, [3-methyl-1-(2H-tetraazol-5-yl)butyl]-3-quinolylamine]	44.9
Cc1ccc2ncnc(NC(CCC(C)(C)C)c3nn[nH]n3)c2c1 (racemic) [Example 83, [4,4-dimethyl-1-(2H-tetraazol-5-yl)pentyl](6-methyl-4-quinazolinyl)amine]	0.251
CC(C)(C)CCC(Nc1cccc2ccccc12)c1nn[nH]n1 (racemic) [Example 35, [4,4-dimethyl-1-(2H-tetraazol-5-yl)pentyl]-1-naphthylamine]	1.07
COc1ccc2ncnc(NC(CCC(C)(C)C)c3nn[nH]n3)c2c1 (racemic) [Example 78, [4,4-dimethyl-1-(2H-tetraazol-5-yl)pentyl](6-methoxy-4-quinazolinyl)amine]	1.49
CC(C)CCC(Nc1ncccn1)c1nn[nH]n1 (racemic) [Example 57, N-2-pyrimidinyl[4-methyl-1-(2H-tetraazol-5-yl)pentyl]amine]	123
CC(C)(C)CCC(Nc1ncnc2cc(Br)ccc12)c1nn[nH]n1 (racemic) [Example 90, [4,4-dimethyl-1-(2H-tetraazol-5-yl)pentyl](7-bromo-4-quinazolinyl)amine]	0.284
CC(C)(C)CCC(Nc1ncnc2cc(F)ccc12)c1nn[nH]n1 (racemic) [Example 82, [4,4-dimethyl-1-(2H-tetraazol-5-yl)pentyl](7-fluoro-4-quinazolinyl)amine]	0.316
CC(C)(C)CC(Nc1cncc2ccccc12)c1nn[nH]n1 (racemic) [Example 48, [3,3-dimethyl-1-(2H-tetraazol-5-yl)butyl]-4-isoquinolylamine]	2.47
CC(C)CCC(Nc1cncc2ccccc12)c1nn[nH]n1 (racemic) [Example 64, [4-methyl-1-(2H-tetraazol-5-yl)pentyl]-4-isoquinolylamine]	8.71
CC(C)(C)CC[C@H](Nc1cccnc1)c1nn[nH]n1 (single isomer, unassigned) [Example 99]	1.56
CC(C)(C)CCC(Nc1ccc2ccccc2n1)c1nn[nH]n1 (racemic) [Example 34, [4,4-dimethyl-1-(2H-tetraazol-5-yl)pentyl]-2-quinolylamine]	1.83

Compound	Kd [µM]
CC(C)CCC(Nc1ncnc2ccc(F)cc12)c1nn[nH]n1 (racemic) [Example 81, [4-methyl-1-(2H-tetraazol-5-yl)pentyl](6-fluoro-4-quinazolinyl)amine]	2.22
CC(C)(C)CCC(Nc1ncnc2cnccc12)c1nn[nH]n1 (racemic) [Example 88, [4,4-dimethyl-1-(2H-tetraazol-5-yl)pentyl]-1,3,7-triaza-4-naphthylamine]	0.426
Cc1ccc2c(NC(CCC(C)(C)C)c3nn[nH]n3)ncnc2c1 (racemic) [Example 84, [4,4-dimethyl-1-(2H-tetraazol-5-yl)pentyl](7-methyl-4-quinazolinyl)amine]	0.461
CC(C)CC(Nc1cncc2ccccc12)c1nn[nH]n1 (racemic) [Example 46, [3-methyl-1-(2H-tetraazol-5-yl)butyl]-4-isoquinolylamine]	3.78
CC(C)(C)CC(Nc1ccccc1)c1nn[nH]n1 (racemic) [Example 43, N-phenyl[3,3-dimethyl-1-(2H-tetraazol-5-yl)butyl]amine]	17.7
CC(C)CC(Nc1ccncn1)c1nn[nH]n1 (racemic) [Example 105, [3-methyl-1-(2H-tetraazol-5-yl)butyl]-4-pyrimidinylamine]	187
CC(C)(C)CC[C@H](Nc1ccc2ccccc2n1)c1nn[nH]n1 (single isomer, unassigned) [Example 96]	0.912
CC(C)(C)CC(Nc1cccnc1)c1nn[nH]n1 (racemic) [Example 62, N-3-pyridyl[3,3-dimethyl-1-(2H-tetraazol-5-yl)butyl]amine]	32.1
Cc1ccc2ncnc(NC(CCC(C)C)c3nn[nH]n3)c2c1 (racemic) [Example 80, [4-methyl-1-(2H-tetraazol-5-yl)pentyl](6-methyl-4-quinazolinyl)amine]	3.88
CC(C)CC(Nc1ncnc2ccccc12)c1nn[nH]n1 (racemic) [Example 103, [3-methyl-1-(2H-tetraazol-5-yl)butyl]-4-quinazolinylamine]	25.5
CC(C)(C)CC(Nc1ccccn1)c1nn[nH]n1 (racemic) [Example 61, N-2-pyridyl[3,3-dimethyl-1-(2H-tetraazol-5-yl)butyl]amine]	60
CC(C)(C)CC(Nc1ncccn1)c1nn[nH]n1 (racemic) [Example 45, N-2-pyrimidinyl[3,3-dimethyl-1-(2H-tetraazol-5-yl)butyl]amine]	91.1
CC(C)(C)CC(Nc1ncnc2ccccc12)c1nn[nH]n1 (racemic) [Example 77, [3,3-dimethyl-1-(2H-tetraazol-5-yl)butyl]-4-quinazolinylamine]	5.41
CC(C)CC(Nc1ncccn1)c1nn[nH]n1 (racemic) [Example 65, [3-methyl-1-(2H-tetraazol-5-yl)butyl]-2-pyrimidinylamine]	98.6
CC(C)CC(Nc1cncnc1)c1nn[nH]n1 (racemic) [Example 49, [3-methyl-1-(2H-tetraazol-5-yl)butyl]-5-pyrimidinylamine]	98
Cn1ccc2cc(NC(CCC(C)(C)C)c3nn[nH]n3)cnc21 (racemic) [Example 53, [4,4-dimethyl-1-(2H-tetraazol-5-yl)pentyl](1-methyl-1H-1,7-diazainden-5-yl)amine]	0.735
CC(C)(C)CCC(Nc1ncnc2ccc(C(F)(F)F)cc12)c1nn[nH]n1 (racemic) [Example 86, [4,4-dimethyl-1-(2H-tetraazol-5-yl)pentyl][6-(trifluoromethyl)-4-quinazolinyl]amine]	1.49
CC(C)(C)CCC(Nc1cnc2ccccc2c1)c1nn[nH]n1 (racemic) [Example 33, [4,4-dimethyl-1-(2H-tetraazol-5-yl)pentyl]-3-quinolylamine]	3.43
Cn1ccc2cc(NC(CC(C)(C)C)c3nn[nH]n3)cnc21 (racemic) [Example 52, [3,3-dimethyl-1-(2H-tetraazol-5-yl)butyl](1-methyl-1H-1,7-diazainden-5-yl)amine]	3.25
CC(C)CC(Nc1ccccn1)c1nn[nH]n1 (racemic) [Example 66, [3-methyl-1-(2H-tetraazol-5-yl)butyl]-2-pyridylamine]	179
N-phenyl[4,4-dimethyl-1-(2H-tetraazol-5-yl)pentyl]amine [Example 39]	2.84
CC(C)CCC(Nc1ncnc2ccccc12)c1nnn[nH]1 (racemic) [Example 101, N-(4-methyl-1-(1H-tetrazol-5-yl)pentyl)quinazolin-4-amine]	18.3
